Among the data in ChEMBL document CHEMBL2074318, “Expression, transport properties, and chromosomal location of organic anion transporter subtype 3” (Am J Physiol Gastrointest Liver Physiol, 2000) are Activity and Km values, retold here.

Common to all, as to assay type: functional, cell-based
The target of series [1] is T1, Solute carrier organic anion transporter family member 1A5 (Rattus norvegicus, UniProt O88397).
T1 sequence (O88397 whole entry): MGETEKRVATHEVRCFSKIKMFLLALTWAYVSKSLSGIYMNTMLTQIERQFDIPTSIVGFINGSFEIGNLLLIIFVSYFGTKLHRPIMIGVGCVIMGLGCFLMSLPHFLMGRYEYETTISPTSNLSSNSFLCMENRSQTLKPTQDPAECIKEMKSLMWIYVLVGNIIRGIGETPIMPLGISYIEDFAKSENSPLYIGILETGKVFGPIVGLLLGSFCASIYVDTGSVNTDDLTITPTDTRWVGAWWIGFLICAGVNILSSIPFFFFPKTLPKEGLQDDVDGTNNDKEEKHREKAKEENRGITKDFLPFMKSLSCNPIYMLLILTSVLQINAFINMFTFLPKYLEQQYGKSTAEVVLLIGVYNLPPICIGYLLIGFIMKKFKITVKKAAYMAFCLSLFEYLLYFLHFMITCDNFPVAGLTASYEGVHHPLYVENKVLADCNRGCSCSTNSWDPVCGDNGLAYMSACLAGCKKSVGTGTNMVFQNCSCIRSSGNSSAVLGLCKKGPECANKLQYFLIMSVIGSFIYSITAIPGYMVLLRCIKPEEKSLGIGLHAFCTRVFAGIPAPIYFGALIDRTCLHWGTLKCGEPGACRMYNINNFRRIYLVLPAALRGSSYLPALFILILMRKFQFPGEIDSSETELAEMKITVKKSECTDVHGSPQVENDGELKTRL
The series is described as follows: TP_TRANSPORTER: inhibition of Taurocholate uptake (Taurocholate: 10 uM, DIDS: 1000 uM) in Oatp3-expressing MDCK cells. To be noted: dog.

For series [2], the target named is T2, Ileal sodium/bile acid cotransporter (Rattus norvegicus, UniProt Q62633).
T2 sequence (Q62633 whole entry): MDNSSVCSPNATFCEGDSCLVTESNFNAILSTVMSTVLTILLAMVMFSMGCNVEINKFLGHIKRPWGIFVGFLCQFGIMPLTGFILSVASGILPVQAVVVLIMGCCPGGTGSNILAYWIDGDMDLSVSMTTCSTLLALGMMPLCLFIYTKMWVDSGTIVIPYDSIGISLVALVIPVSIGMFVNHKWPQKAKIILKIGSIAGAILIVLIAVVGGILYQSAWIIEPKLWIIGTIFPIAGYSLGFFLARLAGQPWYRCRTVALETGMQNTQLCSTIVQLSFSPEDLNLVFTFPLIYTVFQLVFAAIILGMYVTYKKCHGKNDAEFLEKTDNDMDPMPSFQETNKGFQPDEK
The series is described as follows: TP_TRANSPORTER: uptake in ASBT-expressing COS cells. The conditions noted are these: monkey.

In series [3] the target is T1, Solute carrier organic anion transporter family member 1A5. The series can be described thus: TP_TRANSPORTER: uptake in Oatp3-expressing COS cells. To be noted: monkey.
Substrate in series [4]: C[C@H](CCC(=O)NCC(=O)O)[C@H]1CC[C@H]2[C@@H]3CC[C@@H]4C[C@H](O)CC[C@]4(C)[C@H]3C[C@H](O)[C@]12C
The series can be described thus: (§1) TP_TRANSPORTER: uptake in Oatp3-expressing MDCK cells.

Substrate in series [5]: C[C@H](CCC(=O)NCC(=O)O)[C@H]1CC[C@H]2[C@@H]3[C@@H](O)C[C@@H]4C[C@H](O)CC[C@]4(C)[C@H]3CC[C@]12C
Described as §1.

Substrate in series [6]: C[C@H](CCC(=O)NCC(=O)O)[C@H]1CC[C@H]2[C@@H]3[C@H](O)C[C@@H]4C[C@H](O)CC[C@]4(C)[C@H]3CC[C@]12C
The description is as §1.

Substrate in series [7]: C[C@H](CCC(=O)NCC(=O)O)[C@H]1CC[C@H]2[C@@H]3[C@H](O)C[C@@H]4C[C@H](O)CC[C@]4(C)[C@H]3C[C@H](O)[C@]12C
The description is as §1.

Substrate in series [8]: C[C@H](CCC(=O)NCCS(=O)(=O)O)[C@H]1CC[C@H]2[C@@H]3CC[C@@H]4C[C@H](O)CC[C@]4(C)[C@H]3C[C@H](O)[C@]12C
The description is as §1.

Substrate in series [9]: C[C@H](CCC(=O)NCCS(=O)(=O)O)[C@H]1CC[C@H]2[C@@H]3[C@@H](O)C[C@@H]4C[C@H](O)CC[C@]4(C)[C@H]3CC[C@]12C
The series is described as §1.

Substrate in series [10]: C[C@H](CCC(=O)NCCS(=O)(=O)O)[C@H]1CC[C@H]2[C@@H]3[C@H](O)C[C@@H]4C[C@H](O)CC[C@]4(C)[C@H]3CC[C@]12C
The series is described as §1.

With `O=S(=O)(O)c1cc(N=C=S)ccc1/C=C/c1ccc(NC=S)cc1S(=O)(=O)O`, the Activity entry in series [1] was “inhibitor [(at a rough estimate) 15 % of control]”.

As for `C[C@H](CCC(=O)NCC(=O)O)[C@H]1CC[C@H]2[C@@H]3[C@H](O)C[C@@H]4C[C@H](O)CC[C@]4(C)[C@H]3CC[C@]12C` [GLYCOCHENODEOXYCHOLATE], the Activity entry in series [2] and in series [3] was “substrate [+]” throughout.

Consider `C[C@H](CCC(=O)NCC(=O)O)[C@H]1CC[C@H]2[C@@H]3[C@H](O)C[C@@H]4C[C@H](O)CC[C@]4(C)[C@H]3C[C@H](O)[C@]12C` [GLYCOCHOLIC ACID], for which the Activity entry in [2] and in series [3] was “substrate [+]” throughout.

Turning to `C[C@H](CCC(=O)NCC(=O)O)[C@H]1CC[C@H]2[C@@H]3CC[C@@H]4C[C@H](O)CC[C@]4(C)[C@H]3C[C@H](O)[C@]12C` [GLYCODEOXYCHOLATE], the Activity entry in series [2] and in series [3] was “substrate [+]” throughout.

Take `C[C@H](CCC(=O)NCC(=O)O)[C@H]1CC[C@H]2[C@@H]3[C@@H](O)C[C@@H]4C[C@H](O)CC[C@]4(C)[C@H]3CC[C@]12C` [GLYCOURSODEOXYCHOLIC ACID]: the Activity entry in series [2] and in series [3] was “substrate [+]” each time.

Take `C[C@H](CCC(=O)NCCS(=O)(=O)O)[C@H]1CC[C@H]2[C@@H]3[C@H](O)C[C@@H]4C[C@H](O)CC[C@]4(C)[C@H]3CC[C@]12C` [TAUROCHENODEOXYCHOLATE]: the Activity result in series [2] and in [3] was “substrate [+]” in each case.

With `C[C@H](CCC(=O)NCCS(=O)(=O)O)[C@H]1CC[C@H]2[C@@H]3CC[C@@H]4C[C@H](O)CC[C@]4(C)[C@H]3C[C@H](O)[C@]12C` [TAURODEOXYCHOLIC ACID], the Activity entry in series [2] and in series [3] was “substrate [+]” in each case.

On to `C[C@H](CCC(=O)NCCS(=O)(=O)O)[C@H]1CC[C@H]2[C@@H]3[C@@H](O)C[C@@H]4C[C@H](O)CC[C@]4(C)[C@H]3CC[C@]12C` [TAURURSODIOL], for which the Activity entry in series [2] and in series [3] was “substrate [+]” in each case.

B1: Solute carrier organic anion transporter family member 1A5 (Rattus norvegicus) (protein)
chain: T1 sequence (O88397 whole entry)
Turning to B1, the Km (usually the concentration of substrate that gives half-maximal velocity) in [4] was 4.3 µM; in [5], 5.3 µM; in [6] it was 5.6 µM; in [7], 15.4 µM; in [8] it was 5.8 µM; in [9], 6.6 µM. In addition, the Km in series [10] came out at 7 µM.
